Test results from PMC10601436 (ACS Omega, 2023).
Peptide text beside a SMILES is read from it.

Biological target: hDPP-IV (Homo sapiens, UniProt P27487)
Test: DPP-IV inhibitory assay
Format: biochemical

Sequence of hDPP-IV (P27487 whole entry): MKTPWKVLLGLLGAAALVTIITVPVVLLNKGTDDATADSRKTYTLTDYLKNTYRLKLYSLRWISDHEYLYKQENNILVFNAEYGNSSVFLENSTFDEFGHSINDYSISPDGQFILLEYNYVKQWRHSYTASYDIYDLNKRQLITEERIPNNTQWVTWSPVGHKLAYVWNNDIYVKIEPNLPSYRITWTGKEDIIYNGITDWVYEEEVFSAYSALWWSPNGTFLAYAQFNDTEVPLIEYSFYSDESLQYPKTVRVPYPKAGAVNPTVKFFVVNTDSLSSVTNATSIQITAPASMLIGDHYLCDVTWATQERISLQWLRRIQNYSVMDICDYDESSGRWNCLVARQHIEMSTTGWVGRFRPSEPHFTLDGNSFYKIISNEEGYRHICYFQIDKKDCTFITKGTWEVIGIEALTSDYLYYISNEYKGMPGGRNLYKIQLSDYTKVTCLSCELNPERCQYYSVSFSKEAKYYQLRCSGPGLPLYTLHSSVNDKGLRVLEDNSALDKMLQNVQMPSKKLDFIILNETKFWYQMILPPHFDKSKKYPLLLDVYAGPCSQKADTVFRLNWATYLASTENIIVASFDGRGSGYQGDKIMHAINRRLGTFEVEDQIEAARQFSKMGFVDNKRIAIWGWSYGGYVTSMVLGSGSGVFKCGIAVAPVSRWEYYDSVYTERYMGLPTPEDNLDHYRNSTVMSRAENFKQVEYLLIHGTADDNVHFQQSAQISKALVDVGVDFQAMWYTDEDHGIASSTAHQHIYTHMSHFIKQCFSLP

| IC50 [µM] | SMILES |
| --- | --- |
| 188 | CC(C)[C@H](NC(=O)[C@@H](N)Cc1c[nH]c2ccccc12)C(=O)N[C@@H](Cc1ccccc1)C(=O)O [WVF] (H-Trp-Val-Phe-OH) |
| 257 | CC(C)[C@H](NC(=O)[C@@H](N)Cc1c[nH]c2ccccc12)C(=O)N[C@@H](Cc1c[nH]cn1)C(=O)O [WVH] (H-Trp-Val-His-OH) |
| 399 | CC(C)C[C@H](NC(=O)[C@@H](NC(=O)[C@@H](N)Cc1c[nH]c2ccccc12)C(C)C)C(=O)O [WVL] (H-Trp-Val-Leu-OH) |
| 373 | CC(C)[C@H](NC(=O)[C@@H](N)Cc1c[nH]c2ccccc12)C(=O)N[C@@H](CC(N)=O)C(=O)O [WVN] (H-Trp-Val-Asn-OH) |
| 247 | CC(C)[C@H](NC(=O)[C@@H](N)Cc1c[nH]c2ccccc12)C(=O)N[C@@H](CO)C(=O)O [WVS] (H-Trp-Val-Ser-OH) |

Second part, the compound before the results:

| SMILES | IC50 [µM] |
| --- | --- |
| CC(C)[C@H](NC(=O)[C@@H](N)Cc1c[nH]c2ccccc12)C(=O)NCC(=O)O [WVG] (H-Trp-Val-Gly-OH) | 341 |
| CC(C)[C@H](NC(=O)[C@@H](N)Cc1c[nH]c2ccccc12)C(=O)N[C@@H](CCCCN)C(=O)O [WVK] (H-Trp-Val-Lys-OH) | 331 |
| CSCC[C@H](NC(=O)[C@@H](NC(=O)[C@@H](N)Cc1c[nH]c2ccccc12)C(C)C)C(=O)O [WVM] (H-Trp-Val-Met-OH) | 317 |
| CC(C)[C@H](NC(=O)[C@@H](N)Cc1c[nH]c2ccccc12)C(=O)N1CCC[C@H]1C(=O)O [WVP] (H-Trp-Val-Pro-OH) | 402 |
| CC(C)[C@H](NC(=O)[C@@H](N)Cc1c[nH]c2ccccc12)C(=O)N[C@H](C(=O)O)[C@@H](C)O [WVT] (H-Trp-Val-Thr-OH) | 336 |
| CC(C)[C@H](NC(=O)[C@@H](NC(=O)[C@@H](N)Cc1c[nH]c2ccccc12)C(C)C)C(=O)O [WVV] (H-Trp-Val-Val-OH) | 275 |
| CC(C)[C@H](NC(=O)[C@@H](N)Cc1c[nH]c2ccccc12)C(=O)N[C@@H](Cc1c[nH]c2ccccc12)C(=O)O [WVW] (H-Trp-Val-Trp-OH) | 239 |
| CC(C)[C@H](NC(=O)[C@@H](N)Cc1c[nH]c2ccccc12)C(=O)N[C@@H](Cc1ccc(O)cc1)C(=O)O [WVY] (H-Trp-Val-Tyr-OH) | 215 |
